This is an account of results in PubChem BioAssay AID1645863 (Buhrlage Lab, Dana-Farber Cancer Institute and Novartis …, 2021).

The structures appear in SMILES notation. Active and inactive are the calls of the source. How the calls were made is not given here. A value given as a limit tells only on which side of the number the result lay.

The target of the experiment is Ubiquitin carboxyl-terminal hydrolase 10 (Homo sapiens) (UniProt Q14694). The experiment in a line: ubiquitin-specific protease 10 DUB inhibitors, concentration-effect, biochemical, verification of primary screen actives (AID 1645863).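 Further: potency values describe inhibition of USP10 cleavage of a fluorogenic ubiquitin substrate.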 The conditions noted are these: USP10 deubiquitinase enzymatic assay.
Ubiquitin carboxyl-terminal hydrolase 10 (Homo sapiens), sequence (Q14694 whole entry, looked up): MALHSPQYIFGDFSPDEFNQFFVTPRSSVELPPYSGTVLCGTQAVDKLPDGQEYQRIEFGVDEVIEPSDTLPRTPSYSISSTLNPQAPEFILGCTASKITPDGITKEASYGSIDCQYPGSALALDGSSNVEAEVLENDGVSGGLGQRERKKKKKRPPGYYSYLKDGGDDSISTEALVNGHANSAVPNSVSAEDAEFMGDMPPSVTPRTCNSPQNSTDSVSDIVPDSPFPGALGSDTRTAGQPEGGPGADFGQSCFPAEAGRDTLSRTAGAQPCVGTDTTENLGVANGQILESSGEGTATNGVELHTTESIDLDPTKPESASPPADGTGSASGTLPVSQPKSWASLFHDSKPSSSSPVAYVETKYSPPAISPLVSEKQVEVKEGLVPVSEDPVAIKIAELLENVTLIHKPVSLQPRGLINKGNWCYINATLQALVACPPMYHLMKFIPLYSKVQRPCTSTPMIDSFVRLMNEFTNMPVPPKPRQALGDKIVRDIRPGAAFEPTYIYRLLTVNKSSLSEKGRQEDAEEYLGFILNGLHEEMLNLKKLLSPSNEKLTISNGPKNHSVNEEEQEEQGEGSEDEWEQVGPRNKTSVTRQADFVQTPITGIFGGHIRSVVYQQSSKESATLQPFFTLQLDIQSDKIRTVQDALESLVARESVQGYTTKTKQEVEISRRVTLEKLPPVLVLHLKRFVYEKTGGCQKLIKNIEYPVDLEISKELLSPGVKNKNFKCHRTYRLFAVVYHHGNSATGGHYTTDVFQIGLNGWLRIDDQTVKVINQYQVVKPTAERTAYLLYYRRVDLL
For `CSc1cccc(NC(=O)c2cc(-c3cccnc3)n[nH]2)c1`, the IC50 (usually the concentration that gives 50% inhibition) was > 40 µM (inactive).
With `Cc1ccc(NC(=O)CSc2ccc(NC(=O)c3ccc(C(=O)O)cc3C(=O)O)cc2)c(C)c1` the figure was > 40 µM (inactive); with `Cc1ccc2[nH]c(=O)c(-c3nc4ccccn4c3NCc3ccccc3)cc2c1`, 23.7 µM.
For `Cc1nc(N2CCCC2)ncc1-c1cc(=O)[nH]c(Nc2ccc(Cl)cc2Cl)n1`, the IC50 was 12.2 µM.
`Cc1ccc(C)c(Cn2cnc3c(nnn3-c3cccc(F)c3)c2=O)c1`: the IC50 was > 40 µM (inactive).
For the compound `COCCn1c(=O)[nH]c2cc(C(=O)NCCNc3ccc([N+](=O)[O-])cc3C#N)ccc2c1=O`, the IC50 is 15.5 µM.
With `Cn1c(CCNC(=O)c2[nH]nc3c2CCc2ccccc2-3)nc2ccccc21` the figure was 36.1 µM; with `CCOc1ccc2c(c1)c(=O)c(C(=O)c1ccccc1)cn2CC(=O)Nc1ccc(OC)cc1`, > 40 µM (inactive).
Under `COc1ccc(NC(=O)Cn2c(=O)n(CCCC(=O)NC3CCCC3)c(=O)c3cc(Cl)ccc32)c(OC)c1` stands 27.8 µM; under `Cc1ccc(N2CC(c3nnc(NC(=O)CCc4ccccc4)s3)CC2=O)cc1` (configuration not stated), > 40 µM (inactive).
With `COc1cc(O)cc2c1C(=O)OC(C)CCCCCCC2` (configuration not stated) the figure was 29.5 µM; with `COc1ccc(NC(=O)CC(=O)c2ccc([N+](=O)[O-])cc2)cc1S(=O)(=O)Nc1ccc(Cl)cc1`, 25.8 µM; with `c1ccc(CNc2ccc(-c3ccccc3)nn2)cc1`, > 40 µM (inactive).
For `C=C[C@]1(C)CC[C@]2(C)[C@@H](C1)[C@@H](O)C[C@H]1[C@]3(C)CCC[C@@]12OC3=O`, the IC50 was > 40 µM (inactive).
With `Cc1csc(NC(=O)c2c[nH]c3ccc(F)cc3c2=O)n1`, the IC50 is > 40 µM (inactive).
Under `O=C(CN1CC=C(c2ccccc2)CC1)Nc1ccc(S(=O)(=O)N2CCOCC2)cc1` stands > 40 µM (inactive); under `COc1ccc(Nc2nc3c(S(=O)(=O)c4ccc(C)cc4)nnn3c3ccsc23)c(OC)c1`, 10.5 µM.
Under `O=C(Nc1ccc(F)cc1F)c1cc(-c2ccccn2)n[nH]1` stands > 40 µM (inactive); under `Cc1nc(-c2ccc(Cl)cc2)oc1C(=O)Nc1ccc(Cl)cc1`, 38.1 µM; under `CCCCCCCCCC(CCCCCCCCCC(=O)O)O[C@H]1O[C@@H](COC(C)=O)[C@H](O)[C@@H](OC(=O)CC(=O)O)[C@H]1O` (some centres not stated), 30.6 µM.
For `COc1c(O)cc(CC(=O)O)c(C(C)=O)c1O`, the IC50 is 15.3 µM.
In the case of `COc1ccc(NC(=O)c2cc(-c3cccnc3)n[nH]2)cc1Cl`, the IC50 is 28.5 µM.
Turning to `COc1ccc(Cl)cc1NC(=O)Cn1c(=O)n(CCCC(=O)NCc2ccc(C)cc2)c(=O)c2sccc21`, the IC50 was 31.1 µM.
With `Cc1c(C(=O)NCc2cccc(Br)c2)oc2c1-c1[nH]ncc1CC2` the figure was > 40 µM (inactive); with `COc1cc(NC(=O)c2ccc3c(c2)OCO3)ccc1-c1cc2ccccc2oc1=O`, > 40 µM (inactive).
For the compound `CCn1c(CNC(=O)c2cccc(C)c2)nnc1SCC(=O)N1CCc2ccccc21`, the IC50 is > 40 µM (inactive).
With `CC(=O)O[C@@H](C/C=C(\C)C(=O)O)[C@@H](C)[C@H]1C[C@H](OC(C)=O)[C@@]2(C)C3=CC[C@H]4C(C)(C)[C@H](O)CC[C@]4(C)C3=CC[C@]12C` the figure was 18 µM.
With `O=C(NCc1ccc(Cl)cc1)c1cc2c(s1)-c1ccccc1OC2` the figure was > 40 µM (inactive); with `CCc1nc(SCC(=O)Nc2cc(Cl)ccc2C)c2oc3ccccc3c2n1`, 1.14 µM.
Take `Cn1c(=O)[nH]c2nncnc2c1=O`: the IC50 was > 40 µM (inactive).
Regarding `Cc1cc(=O)[nH]c(NC2CCN(S(=O)(=O)c3ccccc3C(F)(F)F)CC2)n1`, the IC50 is > 40 µM (inactive).
With `O=C(NCc1ccc2c(c1)OCO2)c1cc2c(s1)-c1ccccc1OC2` the figure was > 40 µM (inactive); with `COCCCNC(=O)c1ccc(Cn2c(=O)c3ccccc3n(CC(=O)Nc3ccc4c(c3)OCCO4)c2=O)cc1`, > 40 µM (inactive); with `CCCCNC(=O)CSc1nnc(-c2cc3ccccc3n2C)o1`, > 40 µM (inactive).
Under `CCN(Cc1ccccc1)C(=O)C1CCN(Cc2ccc(OC)c(OC)c2OC)CC1` stands > 40 µM (inactive).
On to `O=C(COC(=O)c1cccc([N+](=O)[O-])c1)Nc1cccc(Oc2ccccc2)c1`, for which the IC50 was > 40 µM (inactive).
In the case of `COc1ccc(CCN2COc3c(cc(Cl)c4cccnc34)C2)cc1OC`, the IC50 was > 40 µM (inactive).
With `Cc1ccc(NC(=O)Nc2nnc(CC(=O)NCc3ccccc3)s2)c(Cl)c1` the figure was > 40 µM (inactive).
On to `CCc1ccc([C@@H]2c3c(C)nn(C)c3NC(=O)[C@H]2NC(=O)c2ccc(OC)c(OC)c2)cc1`, for which the IC50 was > 40 µM (inactive).
`O=C(CSc1ccc(-c2cccc([N+](=O)[O-])c2)nn1)Nc1cccc(F)c1`: the IC50 is 15.9 µM.
With `Cc1cccc(C)c1NC(=O)Cn1c(=O)n(CCCCC(=O)NCc2ccc3c(c2)OCO3)c(=O)c2ccccc21` the figure was 22.3 µM; with `COc1ccc(C(=O)COC(=O)c2cccc(NC(=O)c3ccc(Cl)cc3)c2)cc1`, > 40 µM (inactive).
Consider `COc1ccc(C)cc1NC(=O)C1CC(=O)Nc2nc3ccccc3n21` (configuration not stated), for which the IC50 is 28.1 µM.
Turning to `CNC(=O)c1cc2nc(N(C)C)n(-c3ccc(F)cc3)c2s1`, the IC50 is > 40 µM (inactive).
On to `Cc1nnc(NC(=O)C2CCN(c3ccc(S(N)(=O)=O)cc3[N+](=O)[O-])CC2)o1`, for which the IC50 is 12.6 µM.
With `O=C(c1ccncc1)N1CCN(CC2CC=CCC2)CC1` (configuration not stated) the figure was > 40 µM (inactive); with `O=C(Nc1ccccc1C(=O)NC1CCSC1)c1ccc([N+](=O)[O-])cc1` (configuration not stated), > 40 µM (inactive).
With `CC(=O)[C@H]1c2c(c(O)c3c(O)cccc3c2-c2c3c(c(O)c4c(O)cccc24)C(=O)C[C@](C)(O)[C@H]3C(C)=O)C(=O)C[C@]1(C)O`, the IC50 was 39.3 µM.
Turning to `O=C(Cn1c(=O)n(CC2CCC(C(=O)NC3CCCC3)CC2)c(=O)c2ccccc21)NCCC1=CCCCC1` (configuration not stated), the IC50 was > 40 µM (inactive).
With `Cc1cccc(OCCn2c(CCNC(=O)C3CCCCC3)nc3ccccc32)c1` the figure was 16.3 µM; with `C[C@@H]1OC2=C(C(=O)c3cccc(O)c3C2=O)[C@H](O)[C@@H]1O`, 6.1 µM.
As to `COC(=O)c1ccc(NC(=O)c2ccc(COc3cc(Cl)ccc3Cl)cc2)cc1`, the IC50 was > 40 µM (inactive).
Under `Cc1ccc(-n2nc(C)c3c2NC(=O)CC3C(=O)c2cc3ccccc3o2)cc1C` (configuration not stated) stands > 40 µM (inactive); under `CC(C)=CCC[C@H](C(=O)O)[C@@H]1CC[C@]2(C)C3=C(CC[C@@]12C)[C@@]1(C)CCC(=O)C(C)(C)C1CC3` (some centres not stated), 23.8 µM.
With `C=C1C=C(CCC(=O)O)C(=O)OC1/C=C/C=C/C` (configuration not stated) the figure was 3.91 µM.
Under `COc1cc2c(=O)n(CC3CCCO3)c(=O)n(CC(=O)c3ccc4c(c3)OCO4)c2cc1OC` (configuration not stated) stands 37.4 µM; under `Cc1ccc(CNC(=O)c2ccc3nn(CC(=O)Nc4ccccc4F)c(=O)n3c2)cc1`, > 40 µM (inactive).
With `O=C(O)c1cccc(NC(=O)C(Sc2cccc(NC(=O)c3cccc(Cl)c3)c2)c2ccccc2)c1` (configuration not stated), the IC50 was 9.91 µM.
On to `O=c1[nH]c(C2CCN(S(=O)(=O)c3ccc(S(=O)(=O)N4CCOCC4)cc3)CC2)nc2c1nnn2Cc1ccc(F)cc1`, for which the IC50 is > 40 µM (inactive).
Consider `COc1cc2c(c(OC)c1OC)-c1ccc(NCCc3cccc(F)c3)c(=O)cc1[C@@H](NC(C)=O)CC2`, for which the IC50 is > 40 µM (inactive).
With `O=S1(=O)CCN(Cc2c(F)cccc2F)c2c(F)nc(N3CCOCC3)c(F)c21` the figure was > 40 µM (inactive).
Under `Fc1cccc(Nc2nc(-c3ccccn3)nc3ccccc23)c1` stands > 40 µM (inactive); under `O=C(CCSc1nnnn1-c1ccccc1)Nc1cc(C(F)(F)F)ccc1Cl`, > 40 µM (inactive).
For the compound `CCc1cccc(NC(=O)Cc2nnc3ccc(-c4nc(C)no4)cn23)c1`, the IC50 is > 40 µM (inactive).
Under `O=C(Nc1ccccc1Cl)c1cc(-c2ccncc2)n[nH]1` stands > 40 µM (inactive).
With `Cc1ccc(Nc2nc(O)c(CC(=O)Nc3ccccc3C)s2)cc1C` the figure was > 40 µM (inactive); with `NS(=O)(=O)c1cccc(NC(=O)/C=C/c2cn(-c3ccccc3)nc2-c2cccc([N+](=O)[O-])c2)c1`, 27.4 µM.
Under `CC(c1ccccc1)N1CC(O)=C(c2nc3ccccc3s2)C1=N` (configuration not stated) stands > 40 µM (inactive); under `Cc1ccc(Nc2nc(NCC(=O)Nc3cc(C)ccc3C)nc(Nc3ccc(C)cc3)n2)cc1`, 32.8 µM.
Take `O=C(Nc1ccc(NC(=O)c2ccccc2O)cc1)Nc1ccc(OCc2ccccc2)cc1`: the IC50 is > 40 µM (inactive).
Under `O=C(Cn1cnc(-c2noc(-c3cccc(F)c3)n2)c1)Nc1ccccc1` stands 39.8 µM; under `N#Cc1ccccc1NC(=O)c1cc2c(s1)-c1ccccc1S(=O)(=O)C2`, 34.6 µM; under `CC(C)[C@H]1CC[C@@]2(CO2)[C@H]2C(=O)OCC(C(=O)O)=C[C@H]12`, 21.7 µM.
As for `Cc1nc(N2CCN(c3ccc(Cl)cc3)CC2)c2oc3ccccc3c2n1`, the IC50 was 17.7 µM.
For the compound `CCNS(=O)(=O)c1ccc(-c2ccc(-n3cnnn3)cc2)cc1`, the IC50 was > 40 µM (inactive).
As for `O=C(CNC(=O)OCc1ccccc1)Nc1ccc(Br)cc1C(=O)c1ccccc1Cl`, the IC50 was > 40 µM (inactive).
In the case of `CN1CC(c2ncn[nH]2)c2cc(C(=O)NCc3cccc(F)c3)ccc21` (configuration not stated), the IC50 is > 40 µM (inactive).
Regarding `O=C(Nc1cccc(F)c1)Nc1cccc(-c2nnc(-c3ccccc3)o2)c1`, the IC50 is 18.2 µM.
For the compound `Cc1cccc(C(=O)Nc2cccc(SC(C(=O)Nc3ccc(Cl)c(C(=O)O)c3)c3ccccc3)c2)c1` (configuration not stated), the IC50 was 7.42 µM.
Under `Nc1ncc(-c2ccc(F)cc2)c(C2CCCN(C(=O)c3ccn[nH]3)C2)n1` (configuration not stated) stands > 40 µM (inactive); under `COc1ccc2nc(N3CC(C(=O)Nc4ccc(C(N)=O)cc4)C3)sc2c1`, > 40 µM (inactive); under `Cc1cc(O)c(=O)cc2c1C[C@H]1CC(C)(C)/C=C/C[C@@]3(C)Oc4cc(=O)c(O)cc(C)c4C[C@@H]3C[C@H](O)[C@]1(C)O2`, > 40 µM (inactive).
